In patent US11066396B2 (priority 2016, dated 2021):

Target: HDAC1 (Homo sapiens (Human), UniProt Q13547)
Details: read-out: HDAC1 IC50

Chain of HDAC1 (Q13547 whole entry): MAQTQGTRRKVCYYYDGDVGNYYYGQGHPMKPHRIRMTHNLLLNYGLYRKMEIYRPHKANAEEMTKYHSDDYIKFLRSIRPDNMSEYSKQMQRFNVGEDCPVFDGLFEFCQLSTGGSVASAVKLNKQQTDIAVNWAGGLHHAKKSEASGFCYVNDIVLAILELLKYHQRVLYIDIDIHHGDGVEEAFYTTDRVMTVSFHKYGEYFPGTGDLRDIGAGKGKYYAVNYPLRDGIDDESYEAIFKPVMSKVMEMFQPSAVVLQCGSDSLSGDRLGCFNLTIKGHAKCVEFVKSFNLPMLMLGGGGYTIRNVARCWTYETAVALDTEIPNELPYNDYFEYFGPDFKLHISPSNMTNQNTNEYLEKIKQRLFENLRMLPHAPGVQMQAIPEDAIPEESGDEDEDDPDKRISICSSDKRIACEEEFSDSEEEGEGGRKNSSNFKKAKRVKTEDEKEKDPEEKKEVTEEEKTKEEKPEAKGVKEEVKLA

SMILES | IC50 [µM]
O=C1Nc2ccc(F)cc2C1Cc1ccc(-c2noc(C(F)(F)F)n2)cc1 (racemic) [Example 193, 5-fluoro-3-{4-[5-(trifluoromethyl)-1,2,4-oxadiazol-3-yl]benzyl}-1,3-dihydro-2H-indol-2-one] | 0.71
O=C1CCC(c2ccc(-c3noc(C(F)(F)F)n3)cc2)N1c1cccc(F)c1 (racemic) [Example 325, 1-(3-fluorophenyl)-5-{4-[5-(trifluoromethyl)-1,2,4-oxadiazol-3-yl]phenyl}pyrrolidin-2-one] | 2.5
Cc1ccc2c3c(nn2c1)CCC(NCc1ccc(-c2noc(C(F)(F)F)n2)cc1)C3 (racemic) [Example 352, 8-methyl-N-({4-[5-(trifluoromethyl)-1,2,4-oxadiazol-3-yl]phenyl}methyl)-1,2,3,4-tetrahydropyrido[1,2-b]indazol-2-amine] | 0.044
Cc1ccc2c3c(nn2c1)CCC(NCc1ccc(-c2noc(C(F)(F)F)n2)cc1)C3 (racemic) [Example 355, 8-methyl-N-({4-[5-(trifluoromethyl)-1,2,4-oxadiazol-3-yl]phenyl}methyl)-1,2,3,4-tetrahydropyrido[1,2-b]indazol-2-amine] | 0.048
Cc1noc([C@H]2CCCCN2c2ccc(-c3noc(C(F)(F)F)n3)c(Cl)c2)n1 [Example 18, (R)-3-(2-Chloro-4-(2-(3-methyl-1,2,4-oxadiazol-5-yl)piperidin-1-yl)phenyl)-5-(trifluoromethyl)-1,2,4-oxadiazole] | > 15
O=C(NCc1ccc(-c2noc(C(F)(F)F)n2)cc1)c1cc(N2CCOCC2)ccn1 [Example 204, 4-morpholin-4-yl-N-{4-[5-(trifluoromethyl)-1,2,4-oxadiazol-3-yl]benzyl}pyridine-2-carboxamide] | 1
O=C(NCc1ccc(-c2noc(C(F)(F)F)n2)cc1)c1cccc(O)c1 [Example 205, 3-hydroxy-N-{4-[5-(trifluoromethyl)-1,2,4-oxadiazol-3-yl]benzyl}benzamide] | 0.72
CCn1cc(COc2cc(-c3noc(C(F)(F)F)n3)ccn2)c(C)n1 [Example 206, 2-[(1-ethyl-3-methyl-1H-pyrazol-4-yl)methoxy]-4-[5-(trifluoromethyl)-1,2,4-oxadiazol-3-yl]pyridine] | 4.2
FC(F)(F)c1nc(-c2ccnc(OCc3c(Cl)nc4sccn34)c2)no1 [Example 208, 6-chloro-5-[({4-[5-(trifluoromethyl)-1,2,4-oxadiazol-3-yl]pyridin-2-yl}oxy)methyl]imidazo[2,1-b][1,3]thiazole] | 3.1
FC(F)(F)c1nc(-c2ccnc(OCc3cc4n(n3)CCCO4)c2)no1 [Example 210, 2-[({4-[5-(trifluoromethyl)-1,2,4-oxadiazol-3-yl]pyridin-2-yl}oxy)methyl]-6,7-dihydro-5H-pyrazolo[5,1-b][1,3]oxazine] | 1.2
Cc1cc(C)nc(COc2cc(-c3noc(C(F)(F)F)n3)ccn2)c1 [Example 211, 2,4-dimethyl-6-[({4-[5-(trifluoromethyl)-1,2,4-oxadiazol-3-yl]pyridin-2-yl}oxy)methyl]pyridine] | 2.5
FC(F)(F)c1nc(-c2ccnc(OCc3ccnn3-c3cccnc3)c2)no1 [Example 212, 2-[(1-pyridin-3-yl-1H-pyrazol-5-yl)methoxy]-4-[5-(trifluoromethyl)-1,2,4-oxadiazol-3-yl]pyridine] | 1.9
Cc1cnc(COc2cc(-c3noc(C(F)(F)F)n3)ccn2)cn1 [Example 213, 2-methyl-5-[({4-[5-(trifluoromethyl)-1,2,4-oxadiazol-3-yl]pyridin-2-yl}oxy)methyl]pyrazine] | 1.9
FC(F)(F)c1nc(-c2ccnc(OCc3cnc(Cl)cn3)c2)no1 [Example 214, 2-chloro-5-[({4-[5-(trifluoromethyl)-1,2,4-oxadiazol-3-yl]pyridin-2-yl}oxy)methyl]pyrazine] | 1.4
FC(F)(F)c1nc(-c2ccnc(OCc3cncc(Cl)n3)c2)no1 [Example 215, 2-chloro-6-[({4-[5-(trifluoromethyl)-1,2,4-oxadiazol-3-yl]pyridin-2-yl}oxy)methyl]pyrazine] | 1.2
FC(F)(F)c1nc(-c2ccnc(OCc3cncc(N4CCNCC4)n3)c2)no1 [Example 216, 2-piperazin-1-yl-6-[({4-[5-(trifluoromethyl)-1,2,4-oxadiazol-3-yl]pyridin-2-yl}oxy)methyl]pyrazine] | 1.1
FC(F)(F)c1nc(-c2ccnc(OCc3ncccc3Cl)c2)no1 [Example 217, 3-chloro-2-[({4-[5-(trifluoromethyl)-1,2,4-oxadiazol-3-yl]pyridin-2-yl}oxy)methyl]pyridine] | 3.8
FC(F)Cn1nc(COc2cc(-c3noc(C(F)(F)F)n3)ccn2)cc1C1CC1 [Example 218, 2-{[5-cyclopropyl-1-(2,2-difluoroethyl)-1H-pyrazol-3-yl]methoxy}-4-[5-(trifluoromethyl)-1,2,4-oxadiazol-3-yl]pyridine] | 0.87
FC(F)(F)Cn1nc(COc2cc(-c3noc(C(F)(F)F)n3)ccn2)cc1C1CC1 [Example 219, 2-{[5-cyclopropyl-1-(2,2,2-trifluoroethyl)-1H-pyrazol-3-yl]methoxy}-4-[5-(trifluoromethyl)-1,2,4-oxadiazol-3-yl]pyridine] | 0.92
Cc1cc(COc2cc(-c3noc(C(F)(F)F)n3)ccn2)nn1CC(F)F [Example 220, 2-{[1-(2,2-difluoroethyl)-5-methyl-1H-pyrazol-3-yl]methoxy}-4-[5-(trifluoromethyl)-1,2,4-oxadiazol-3-yl]pyridine] | 1.2
FC(F)(F)c1nc(-c2ccnc(OCc3ccn(C4CC4)n3)c2)no1 [Example 222, 2-[(1-cyclopropyl-1H-pyrazol-3-yl)methoxy]-4-[5-(trifluoromethyl)-1,2,4-oxadiazol-3-yl]pyridine] | 3.5
CC(C)n1ccc(COc2cc(-c3noc(C(F)(F)F)n3)ccn2)n1 [Example 223, 2-{[1-(1-methylethyl)-1H-pyrazol-3-yl]methoxy}-4-[5-(trifluoromethyl)-1,2,4-oxadiazol-3-yl]pyridine] | 2.4
Cn1nc(COc2cc(-c3noc(C(F)(F)F)n3)ccn2)cc1C(C)(C)C [Example 224, 2-[(5-tert-butyl-1-methyl-1H-pyrazol-3-yl)methoxy]-4-[5-(trifluoromethyl)-1,2,4-oxadiazol-3-yl]pyridine] | 1.2
O=C1CCc2ccc(Br)cc2N1Cc1ccc(-c2noc(C(F)(F)F)n2)cc1 [Example 319, 7-bromo-1-{4-[5-(trifluoromethyl)-1,2,4-oxadiazol-3-yl]benzyl}-3,4-dihydroquinolin-2(1H)-one] | 0.18
O=c1ccc2ccc(F)cc2n1Cc1ccc(-c2noc(C(F)(F)F)n2)cc1 [Example 322, 7-fluoro-1-{4-[5-(trifluoromethyl)-1,2,4-oxadiazol-3-yl]benzyl}quinolin-2(1H)-one] | 0.26
O=C1CCc2ccc(F)cc2N1Cc1ccc(-c2noc(C(F)(F)F)n2)cn1 [Example 323, 7-fluoro-1-({5-[5-(trifluoromethyl)-1,2,4-oxadiazol-3-yl]pyridin-2-yl}methyl)-3,4-dihydroquinolin-2(1H)-one] | 0.053
O=C1CCc2ccccc2N1Cc1ccc(-c2noc(C(F)(F)F)n2)cn1 [Example 324, 1-({5-[5-(trifluoromethyl)-1,2,4-oxadiazol-3-yl]pyridin-2-yl}methyl)-3,4-dihydroquinolin-2(1H)-one] | 0.15
